According to paper PMC6272341, “Synthesis and Biological Evaluation of N-Alkoxyphenyl-3-hydroxynaphthalene-2-carboxanilides” (Molecules, 2015):
pIC50: −log10 of the molar value. Values after ≈ are worked out from the molar mass of the structure shown. Values joined by “and” are separate entries in the source; they are usually repeats but may differ in a detail not shown here. Identical values can stand only once. Like-named read-outs stand apart in the source and are kept apart here.

Columns and labels:
[1] = test system: methicillin-resistant S. aureus clinical isolate MRSA 63718; experiment: In vitro antibacterial susceptibility testing, broth dilution micro-method (MIC); settings: for MIC: Staphylococcus aureus, MRSA, read-out: MIC MRSA 63718, clinical isolate MRSA 63718
S. aureus ATCC 29213 = experiment: as above; settings: Staphylococcus aureus, ATCC29213, 24 h, read-out: MIC SA
[2] = test system: methicillin-resistant S. aureus clinical isolate SA 630; experiment: as above; settings: 24 h; for MIC: Staphylococcus aureus, MRSA, read-out: MIC MRSA SA 630, clinical isolate MRSA SA 630, 37 °C, MH broth
[3] = test system: methicillin-resistant S. aureus clinical isolate SA 3202; experiment: as above; settings: 24 h; for MIC: Staphylococcus aureus, MRSA, read-out: MIC MRSA 3202, clinical isolate MRSA 3202, 37 °C, MH broth
[4] = test system: human monocytic leukemia THP-1 cells; settings: 24 h
[5] = test system: clinical isolate of M. avium subsp. paratuberculosis CIT03; experiment: In vitro antimycobacterial evaluation, alamarBlue (MIC); type: cell-based; settings: Mycobacterium avium, 264 h, read-out: MIC MAP
[6] = test system: M. tuberculosis H37Ra ATCC 25177; experiment: as above; type: cell-based; settings: Mycobacterium tuberculosis, 168 h, read-out: MIC MT
Description: The evaluation of the in vitro antimycobacterial activity of the compounds was performed against M. tuberculosis H37Ra ATCC 25177 [25] and clinical isolate of M. avium subsp. paratuberculosis CIT03 [26], see Table 1. The activity of compounds was expressed as the minimum inhibitory concentration (MIC) that is defined for mycobacteria as a 90% or greater (IC90) reduction of growth in comparison with the control. The MIC/IC90 value is routinely and widely used in bacterial assays, being a standard detection limit according to the Clinical and Laboratory Standards Institute.
Mycobacterium tuberculosis H37Ra ATCC 25177 and well characterised clinical isolate M. avium subsp. paratuberculosis CIT03 were grown in Middlebrook broth (MB), supplemented with Oleic-Albumin-Dextrose-Catalase supplement (Becton Dickinson, Oxford, UK) and mycobactin J (2 μg/mL). Identification of these isolates was performed using biochemical and molecular protocols. At log phase growth, a culture sample (10 mL) was centrifuged at 15,000 rpm/20 min using a bench top centrifuge (Model CR 4-12, Jouan Inc., Winchester, VA, USA). Following removal of the supernatant, the pellet was washed in fresh Middlebrook 7H9GC broth and re-suspended in fresh supplemented MB (10 mL). The turbidity was adjusted to match McFarland standard No. 1 (3 × 10^8 cfu) with MB broth. A further 1:20 dilution of the culture was then performed in MB broth. The antimicrobial susceptibility of all three mycobacterial species was investigated in a 96-well plate format. In these experiments, sterile deionised water (300 µL) was added to all outer-perimeter wells of the plates to minimize evaporation of the medium in the test wells during incubation. Sample wells were composed of 100 µL of test compound dilution and 100 µL of the bacterial stock being tested against. Dilutions of each compound were prepared in duplicate. For all synthesized compounds, final concentrations ranged from 1000 μg/mL to 8 μg/mL. All compounds were prepared in DMSO and subsequent dilutions were made in supplemented MB. The plates were sealed with parafilm and incubated at 37 °C, for 7 days in the case of M. tuberculosis and 11 days in the case of M. avium subsp. paratuberculosis. Following incubation, a 10% addition of alamarBlue (AbD Serotec, Kidlington, UK) was mixed into each well and readings at 570 nm and 600 nm were taken, initially for background subtraction and subsequently after 24 h re-incubation. The background subtraction is necessary for strongly coloured compounds, where the colour may interfere with the interpretation of any colour change. For non-interfering compounds, a blue colour in the well was interpreted as an absence of growth and a pink colour was scored as growth. […] The MIC value is routinely and widely used in bacterial assays and is a standard detection limit according to the Clinical and Laboratory Standards Institute (CLSI,). Rifampicin (Sigma-Aldrich) was used as the standard as it is clinically used antimycobacterial drugs.

[7] = test system: photosynthetic electron transport in spinach chloroplasts; experiment: Inhibition of photosynthetic electron transport (PET), DCPIP photoreduction (Hill reaction); type: biochemical, spinach (Spinacia oleracea L.)
Description: The PET inhibiting activity of the compounds was expressed by IC50 values. […] The aqueous solubility of the para-substituted compounds was limited; therefore IC50 values could not be determined due to precipitation of compounds during experiment. […]
Chloroplasts were prepared from spinach (Spinacia oleracea L.) according to Masarovicova and Kralova. The inhibition of photosynthetic electron transport (PET) in spinach chloroplasts was determined spectrophotometrically (Genesys 6, Thermo Scientific Corporation), using an artificial electron acceptor 2,6-dichlorophenol-indophenol (DCPIP) according to Kralova et al., and the rate of photosynthetic electron transport was monitored as a photoreduction of DCPIP. The measurements were carried out in phosphate buffer (20.0 mM, pH 7.2) containing sucrose (0.4 M), MgCl2 (5.0 mM) and NaCl (15.0 mM). The chlorophyll content was 30 mg/L in these experiments and the samples were irradiated (~100 W/m^2 with 10 cm distance) with a halogen lamp (250 W) using a 4 cm water filter to prevent warming of the samples (suspension temperature 22 °C). The studied compounds were dissolved in DMSO due to their limited aqueous solubility. The applied DMSO concentration (up to 4%) had negligible effect on the photochemical activity in isolated spinach chloroplasts (observed differences in DCPIP photoreduction due DMSO addition were within experimental error). The inhibitory efficiency of the studied compounds was expressed by IC50 values, i.e., by molar concentration of the compounds causing 50% decrease in DCPIP photoreduction relative to the untreated control. […] All reagents used in this study were of analytical grade and were purchased from Sigma.

[8] = M. avium subsp. paratuberculosis CIT03, 11 days, 37 °C, alamarBlue, MIC/IC90
[9] = M. tuberculosis H37Ra, 7 days, 37 °C, alamarBlue, MIC/IC90

| SMILES | MIC ([1]; 24 h, 24 h, 37 °C, MH broth) [µM] | MIC (S. aureus ATCC 29213) [µM] | MIC [2] [µM] | MIC [3] [µM] | LD50 [4] [µM] | MIC [5, 8] [µM] | MIC [6] [µM] | pIC50 [7] | MIC [6, 9] [µM] | MIC [5] [µM] | activity fold higher than that of ampicillin ([1]; antibacterial activity against MRSA strains versus ampicillin) [fold] | MIC MRSA 63718 ([1]; clinical isolate MRSA 63718, 24 h, 37 °C, MH broth) [µM] | MIC MRSA SA 630 ([2]; clinical isolate MRSA SA 630, 37 °C, MH broth) [µM] | MIC MRSA 3202 ([3]; clinical isolate MRSA 3202, 37 °C, MH broth) [µM] |
| --- | --- | --- | --- | --- | --- | --- | --- | --- | --- | --- | --- | --- | --- | --- |
| CC1(C)S[C@@H]2[C@H](NC(=O)[C@H](N)c3ccccc3)C(=O)N2[C@H]1C(=O)O [APC, ampicillin, reference compound] | > 46 | 5.7 (≈ 1.99 µg/mL) | > 46 | > 46 |  |  |  |  |  |  |  |  |  |  |
| O=C(Nc1ccccc1)c1cc2ccccc2cc1O [Compound 2, 3-Hydroxy-N-phenylnaphthalene-2-carboxamide] | 972 (≈ 256 µg/mL) | 972 (≈ 256 µg/mL) | 972 (≈ 256 µg/mL) | 972 (≈ 256 µg/mL) | >30 | 950 (≈ 250 µg/mL) | 950 (≈ 250 µg/mL) |  |  |  |  |  |  |  |
| COc1ccccc1NC(=O)c1cc2ccccc2cc1O [Compound 3a, 3-hydroxy-N-(2-methoxyphenyl)naphthalene-2-carboxamide] | 55 (≈ 16.1 µg/mL) | 55 (≈ 16.1 µg/mL) | 55 (≈ 16.1 µg/mL) | 55 (≈ 16.1 µg/mL) |  | 205 (≈ 60.1 µg/mL) |  | 4.23 | 51 (≈ 15 µg/mL) |  |  |  |  |  |
| COc1cccc(NC(=O)c2cc3ccccc3cc2O)c1 [Compound 3b, 3-hydroxy-N-(3-methoxyphenyl)naphthalene-2-carboxamide] | 873 (≈ 256 µg/mL) | 873 (≈ 256 µg/mL) | 873 (≈ 256 µg/mL) | 873 (≈ 256 µg/mL) | >30 | 426 (≈ 125 µg/mL) |  | 4.27 | 51 (≈ 15 µg/mL) |  |  |  |  |  |
| COc1ccc(NC(=O)c2cc3ccccc3cc2O)cc1 [Compound 3c, 3-hydroxy-N-(4-methoxyphenyl)naphthalene-2-carboxamide] | 873 (≈ 256 µg/mL) | 873 (≈ 256 µg/mL) | 873 (≈ 256 µg/mL) | 873 (≈ 256 µg/mL) | >30 |  |  |  | 852 (≈ 250 µg/mL) | 852 (≈ 250 µg/mL) |  |  |  |  |
| CCOc1ccccc1NC(=O)c1cc2ccccc2cc1O [Compound 4a, N-(2-Ethoxyphenyl)-3-hydroxynaphthalene-2-carboxamide] | 832 (≈ 256 µg/mL) | 832 (≈ 256 µg/mL) | 832 (≈ 256 µg/mL) | 832 (≈ 256 µg/mL) | >30 |  |  | 4.12 | 813 (≈ 250 µg/mL) | 813 (≈ 250 µg/mL) |  |  |  |  |
| CCOc1ccc(NC(=O)c2cc3ccccc3cc2O)cc1 [Compound 4c, N-(4-Ethoxyphenyl)-3-hydroxynaphthalene-2-carboxamide] | 832 (≈ 256 µg/mL) | 832 (≈ 256 µg/mL) | 832 (≈ 256 µg/mL) | 832 (≈ 256 µg/mL) | >30 |  |  |  | 813 (≈ 250 µg/mL) | 813 (≈ 250 µg/mL) |  |  |  |  |
| CCCOc1ccccc1NC(=O)c1cc2ccccc2cc1O [Compound 5a, 3-Hydroxy-N-(2-propoxyphenyl)naphthalene-2-carboxamide] | 12 (≈ 3.86 µg/mL) | 12.4 (≈ 3.99 µg/mL) | 12 (≈ 3.86 µg/mL) | 12 (≈ 3.86 µg/mL) |  |  |  | 3.89 | 778 (≈ 250 µg/mL) | 778 (≈ 250 µg/mL) | ~4 | 12.4 (≈ 3.99 µg/mL) | 12.4 (≈ 3.99 µg/mL) | 12.4 (≈ 3.99 µg/mL) |
| CCCOc1cccc(NC(=O)c2cc3ccccc3cc2O)c1 [Compound 5b, 3-Hydroxy-N-(3-propoxyphenyl)naphthalene-2-carboxamide] | 796 (≈ 256 µg/mL) | 796 (≈ 256 µg/mL) | 796 (≈ 256 µg/mL) | 796 (≈ 256 µg/mL) |  |  |  | 5.32 | 778 (≈ 250 µg/mL) | 778 (≈ 250 µg/mL) |  |  |  |  |
| CCCOc1ccc(NC(=O)c2cc3ccccc3cc2O)cc1 [Compound 5c, 3-Hydroxy-N-(4-propoxyphenyl)naphthalene-2-carboxamide] | 796 (≈ 256 µg/mL) | 796 (≈ 256 µg/mL) | 796 (≈ 256 µg/mL) | 796 (≈ 256 µg/mL) | >30 |  |  |  | 778 (≈ 250 µg/mL) | 778 (≈ 250 µg/mL) |  |  |  |  |
| CCCCOc1ccccc1NC(=O)c1cc2ccccc2cc1O [Compound 6a, N-(2-Butoxyphenyl)-3-hydroxynaphthalene-2-carboxamide] | 763 (≈ 256 µg/mL) | 763 (≈ 256 µg/mL) | 763 (≈ 256 µg/mL) | 763 (≈ 256 µg/mL) | >30 | 745 (≈ 250 µg/mL) |  | 3.74 | 373 (≈ 125 µg/mL) |  |  |  |  |  |
| CCCCOc1cccc(NC(=O)c2cc3ccccc3cc2O)c1 [Compound 6b, N-(3-Butoxyphenyl)-3-hydroxynaphthalene-2-carboxamide] | 763 (≈ 256 µg/mL) | 763 (≈ 256 µg/mL) | 763 (≈ 256 µg/mL) | 763 (≈ 256 µg/mL) | 16.5 ± 0.8 |  |  | 5.11 | 745 (≈ 250 µg/mL) | 745 (≈ 250 µg/mL) |  |  |  |  |
| CCCCOc1ccc(NC(=O)c2cc3ccccc3cc2O)cc1 [Compound 6c, N-(4-Butoxyphenyl)-3-hydroxynaphthalene-2-carboxamide] | 763 (≈ 256 µg/mL) | 763 (≈ 256 µg/mL) | 763 (≈ 256 µg/mL) | 763 (≈ 256 µg/mL) | >30 |  |  |  | 745 (≈ 250 µg/mL) | 745 (≈ 250 µg/mL) |  |  |  |  |
| CC(C)Oc1ccc(NC(=O)c2cc3ccccc3cc2O)cc1 [Compound 7c, 3-Hydroxy-N-[4-(prop-2-yloxy)phenyl]naphthalene-2-carboxamide] | 796 (≈ 256 µg/mL) | 796 (≈ 256 µg/mL) | 796 (≈ 256 µg/mL) | 796 (≈ 256 µg/mL) | >30 | 778 (≈ 250 µg/mL) |  |  | 389 (≈ 125 µg/mL) |  |  |  |  |  |
| CCC(C)Oc1ccc(NC(=O)c2cc3ccccc3cc2O)cc1 (centres unmarked) [Compound 8c, N-[4-(But-2-yloxy)phenyl]-3-hydroxynaphthalene-2-carboxamide] | 763 (≈ 256 µg/mL) | 763 (≈ 256 µg/mL) | 763 (≈ 256 µg/mL) | 763 (≈ 256 µg/mL) | >30 | 745 (≈ 250 µg/mL) |  |  | 89 (≈ 29.9 µg/mL) |  |  |  |  |  |
| CN(C)C(=O)Nc1ccc(Cl)c(Cl)c1 [DCMU, 3-(3,4-dichlorophenyl)-1,1-dimethylurea, reference compound] |  |  |  |  |  |  |  | ~5.72 and 5.72 |  |  |  |  |  |  |
| CO[C@H]1/C=C/O[C@@]2(C)Oc3c(C)c(O)c4c(O)c(c(/C=N/N5CCN(C)CC5)c(O)c4c3C2=O)NC(=O)/C(C)=C\C=C\[C@H](C)[C@H](O)[C@@H](C)[C@@H](O)[C@@H](C)[C@H](OC(C)=O)[C@@H]1C [RIF, rifampicin, reference compound] |  |  |  |  |  | 109 (≈ 89.7 µg/mL) |  |  | 10 (≈ 8.23 µg/mL) |  |  |  |  |  |
